This passage reports IC50 results from patent US20110009403A1, “2-MORPHOLINYLPURINES AS INHIBITORS OF PI3K” (S*BIO Pte Ltd., priority 2007, published 2011).

Molecules are shown by their SMILES.

In experiment [1] the target is mTOR (Homo sapiens, UniProt P42345). The experiment is described as follows: mTOR assay (phosphorylation of 4eBP1, [γ33P]-ATP filter plate). It counts as biochemical. The following applies: 10 μM ATP, 1 hour at room temperature. The protocol: Truncated mTOR kinase and His-tagged 4eBP1 were produced in-house. [γ^33P]-ATP was purchased from Amersham (GE Healthcare). All chemicals, unless otherwise stated, were from Sigma-Aldrich.
Phosphorylation assays were initially performed in a final volume of 20 μL in 384-well polypropylene plate (Greiner). Compounds were typically tested over the range from 100 μM to 0.006 μM, in 8 step dilutions, in duplicate. 10 μL/well of 2× Enzyme-Substrate solution (1.5 μg/mL mTOR, 40 μg/mL 4eBP1 in 1× assay buffer: 10 mM Hepes pH 7.5, 50 mM NaCl and 10 mM MnCl2) were first added to the sample plate containing 1 μL/well of test compound in neat DMSO. The reaction was initiated by adding 10 μL/well of 20 μM ATP solution (final assay concentration 10 μM ATP and 0.4 μCi/well of [γ^33P]-ATP). After 1 hour incubation at room temperature, the reaction was terminated with 40 μL/well of 20 mM EDTA/1 mM ATP solution.
50 μL/well of the stopped reaction mix was then transferred to 384-well MultiScreenHTS-PH filter plate (Millipore) pre-added with 50 μL/well of 1% phosphoric acid. The plate was washed 4 times with 120 μL/well of 0.5% phosphoric acid via vacuum filtration. Finally, 10 μL/well of Optiphase™ SuperMix liquid scintillation cocktail (Perkin Elmer) was added. After minimum 1 hour of incubation, counting was performed in a Wallac MicroBeta TriLux scintillation counter using coincidence counting mode with crosstalk correction.

In experiment [2] the target is T1, PI3K p110α/p85 (Homo sapiens, UniProt P42336).
T1 construct: made in house
Nature of the experiment: PI3K assay ([γ33P]ATP, PtdIns/PtdSer coated plates). It counts as biochemical. The conditions noted are these: 2 μM ATP, 1 hour at RT; read-out: IC50 (PI3Kα). On the procedure: Recombinant PI3K p110α/p85 was prepared in-house. Phosphatidylinositol (PtdIns), phosphotidylserine (PtdSer) and all other unspecified chemicals were purchased from Sigma-Aldrich. [γ^33P]ATP and Optiphase scintillant were obtained from Perkin Elmer.
Assays were performed in a final assay volume of 25 μL in 384-well Maxisorp plates (Nunc). Compounds were tested at 8 concentrations in 3-fold serial dilution, generally starting from 10 μM. Maxisorp plates were coated with 20 μL/well of a 1:1 mixture of PtdIns and PtdSer [0.1 mg/mL each dissolved in chloroform:ethanol (3:7)] and left overnight in a fume hood at room temperature (RT) to dry.
The enzyme reaction was created by pipetting 5 μL/well of compound (in 2.5% DMSO), 10 μL/well of enzyme (0.5 μg/mL p110α+1 μg/mL p85), and 10 μL/well of 5 μM ATP with 5 μCi/mL [γ^33P]ATP in assay buffer (final concentrations: 0.2 μg/mL p110α, 2 μM ATP, […] [γ^33P]ATP in 1× assay buffer: 100 mM Tris-HCl pH 7.0, 200 mM NaCl, 8 mM MgCl2). The reaction was incubated for 1 hour at RT and terminated with 30 μL/well of 50 mM EDTA solution. The plate was then washed twice with TBS, dried, and added with 30 μL/well of scintillant before it was counted in a MicroBeta Trilux.

Chain of mTOR (P42345 1382-2549 limits assumed): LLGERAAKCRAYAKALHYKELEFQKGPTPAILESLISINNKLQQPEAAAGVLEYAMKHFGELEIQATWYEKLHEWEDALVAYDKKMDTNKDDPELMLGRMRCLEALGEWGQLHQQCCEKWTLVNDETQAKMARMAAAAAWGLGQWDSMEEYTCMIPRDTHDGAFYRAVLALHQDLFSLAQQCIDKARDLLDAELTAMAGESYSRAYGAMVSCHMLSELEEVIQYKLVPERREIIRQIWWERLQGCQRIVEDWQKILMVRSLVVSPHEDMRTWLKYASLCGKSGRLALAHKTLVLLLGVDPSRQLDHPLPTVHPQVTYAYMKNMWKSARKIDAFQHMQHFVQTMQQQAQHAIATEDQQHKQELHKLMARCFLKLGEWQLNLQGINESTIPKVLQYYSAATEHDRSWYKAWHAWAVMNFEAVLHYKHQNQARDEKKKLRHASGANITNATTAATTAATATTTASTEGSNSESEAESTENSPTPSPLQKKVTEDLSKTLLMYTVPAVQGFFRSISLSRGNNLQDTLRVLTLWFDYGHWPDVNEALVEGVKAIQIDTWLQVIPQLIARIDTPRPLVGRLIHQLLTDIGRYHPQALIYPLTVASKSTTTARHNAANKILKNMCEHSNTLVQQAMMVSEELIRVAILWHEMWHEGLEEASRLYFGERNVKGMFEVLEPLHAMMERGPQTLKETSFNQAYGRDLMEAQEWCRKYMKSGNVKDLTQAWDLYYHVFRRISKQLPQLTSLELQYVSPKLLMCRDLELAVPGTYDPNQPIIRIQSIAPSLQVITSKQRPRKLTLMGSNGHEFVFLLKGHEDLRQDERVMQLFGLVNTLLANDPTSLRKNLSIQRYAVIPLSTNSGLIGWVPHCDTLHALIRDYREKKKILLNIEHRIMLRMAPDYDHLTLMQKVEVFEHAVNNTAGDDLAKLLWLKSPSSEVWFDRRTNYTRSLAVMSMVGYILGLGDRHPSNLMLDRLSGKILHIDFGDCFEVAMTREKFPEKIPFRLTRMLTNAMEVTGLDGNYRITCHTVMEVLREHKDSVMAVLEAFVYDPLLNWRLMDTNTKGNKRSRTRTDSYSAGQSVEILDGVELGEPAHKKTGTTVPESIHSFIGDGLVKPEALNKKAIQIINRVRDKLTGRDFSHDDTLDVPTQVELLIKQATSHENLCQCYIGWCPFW
T1 sequence (P42336 whole entry): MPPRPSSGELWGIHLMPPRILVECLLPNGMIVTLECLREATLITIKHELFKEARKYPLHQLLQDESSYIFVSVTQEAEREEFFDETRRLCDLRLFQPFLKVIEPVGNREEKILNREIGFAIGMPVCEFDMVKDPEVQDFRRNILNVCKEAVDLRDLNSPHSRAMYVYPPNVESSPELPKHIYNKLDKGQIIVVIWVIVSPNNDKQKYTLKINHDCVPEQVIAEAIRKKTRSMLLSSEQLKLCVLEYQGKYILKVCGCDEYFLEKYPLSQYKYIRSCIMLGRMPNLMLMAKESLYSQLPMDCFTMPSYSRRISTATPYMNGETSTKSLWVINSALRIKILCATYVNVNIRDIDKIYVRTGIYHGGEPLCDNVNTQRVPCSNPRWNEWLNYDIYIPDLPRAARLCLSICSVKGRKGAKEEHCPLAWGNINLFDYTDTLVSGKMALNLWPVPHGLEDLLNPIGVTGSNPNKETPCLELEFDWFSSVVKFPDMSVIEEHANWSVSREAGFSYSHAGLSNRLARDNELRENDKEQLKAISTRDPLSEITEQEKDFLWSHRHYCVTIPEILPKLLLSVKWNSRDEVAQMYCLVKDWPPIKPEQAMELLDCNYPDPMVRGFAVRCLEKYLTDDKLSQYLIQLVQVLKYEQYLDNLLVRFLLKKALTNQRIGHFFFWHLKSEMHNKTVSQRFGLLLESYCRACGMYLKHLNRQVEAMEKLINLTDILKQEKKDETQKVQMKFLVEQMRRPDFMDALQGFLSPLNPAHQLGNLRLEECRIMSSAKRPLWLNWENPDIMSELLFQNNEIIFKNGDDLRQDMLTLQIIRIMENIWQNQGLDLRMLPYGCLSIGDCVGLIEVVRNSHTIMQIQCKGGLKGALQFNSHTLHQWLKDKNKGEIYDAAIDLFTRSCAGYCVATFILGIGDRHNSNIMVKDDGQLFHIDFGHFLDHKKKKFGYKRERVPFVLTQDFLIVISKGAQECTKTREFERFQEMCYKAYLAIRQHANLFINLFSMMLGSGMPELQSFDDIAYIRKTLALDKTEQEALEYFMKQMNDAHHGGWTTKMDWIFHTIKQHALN
T1 sequence (P27986 whole entry partner): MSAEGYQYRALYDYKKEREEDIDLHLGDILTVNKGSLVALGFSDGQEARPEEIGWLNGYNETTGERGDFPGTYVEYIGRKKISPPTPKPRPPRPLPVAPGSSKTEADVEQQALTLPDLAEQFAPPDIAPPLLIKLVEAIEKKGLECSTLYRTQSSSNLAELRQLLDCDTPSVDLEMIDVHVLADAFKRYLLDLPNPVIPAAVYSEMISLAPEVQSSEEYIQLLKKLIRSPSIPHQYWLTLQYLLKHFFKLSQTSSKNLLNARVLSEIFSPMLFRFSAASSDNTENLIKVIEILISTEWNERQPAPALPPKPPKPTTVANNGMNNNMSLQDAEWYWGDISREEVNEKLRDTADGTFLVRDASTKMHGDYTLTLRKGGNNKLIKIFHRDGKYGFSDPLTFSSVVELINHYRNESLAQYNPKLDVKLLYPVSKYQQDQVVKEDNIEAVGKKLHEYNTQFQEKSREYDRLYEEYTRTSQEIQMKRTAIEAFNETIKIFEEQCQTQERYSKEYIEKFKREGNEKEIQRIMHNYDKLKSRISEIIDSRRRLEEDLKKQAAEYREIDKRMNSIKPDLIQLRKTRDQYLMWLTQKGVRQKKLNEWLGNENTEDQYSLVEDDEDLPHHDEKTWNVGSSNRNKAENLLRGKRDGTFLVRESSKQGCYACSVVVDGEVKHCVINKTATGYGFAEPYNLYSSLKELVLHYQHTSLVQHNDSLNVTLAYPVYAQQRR

Turning to `Oc1cccc(-c2nc(N3CCOCC3)nc3c2ncn3C2CCCCO2)c1` (stereo not shown) [Compound 57], the IC50 in experiment [1] and in experiment [2] was under 1000 nM in each case.

In the case of `CS(=O)(=O)N1CCC(n2cnc3c(-c4cccc5[nH]ccc45)nc(N4CCOCC4)nc32)CC1` [Compound 111], the IC50 in experiment [1] and in experiment [2] was under 1000 nM each time.

As for `CCC(C)n1c(NCCN(C)C)nc2c(-c3cccc(O)c3)nc(N3CCOCC3)nc21` (stereo not shown) [Compound 127], the half-inhibitory concentration (IC50) in experiment [1] and in experiment [2] was under 1000 nM throughout.

As for `Nc1ccc(-c2nc(N3CCOCC3)nc3c2ncn3C2CCCC2)cn1` [Compound 133], the IC50 in experiment [1] and in experiment [2] was under 1000 nM throughout.

On to `c1cc(-c2nc(N3CCOCC3)nc3c2ncn3C2CCNCC2)c2cc[nH]c2c1` [Compound 87], for which the IC50 is 1000 to 5000 nM in experiment [1] and under 1000 nM in experiment [2].

With `Oc1cccc(-c2nc(N3CCOCC3)nc3c2ncn3CC2CCCCC2)c1` [Compound 72], the IC50 in experiment [1] was under 1000 nM; in experiment [2], 1000 to 5000 nM.

Turning to `Nc1ccc(-c2nc(N3CCOCC3)nc3c2ncn3Cc2ccccc2)cc1N` [Compound 38], the concentration for half-maximal inhibition (IC50) was 1000 to 5000 nM in experiment [1] and over 5000 nM in experiment [2].

With `CC(=O)Nc1ccc(Cn2cnc3c(-c4cccc(OC(C)=O)c4)nc(N4CCOCC4)nc32)cc1` [Compound 33], the IC50 is over 5000 nM in experiment [1] and under 1000 nM in experiment [2].

Take `Oc1cccc(-c2nc(N3CCOCC3)nc3c2ncn3Cc2cccc(F)c2)c1` [Compound 15]: the 50% inhibitory concentration (IC50) in experiment [1] and in experiment [2] was under 1000 nM throughout.

Consider `COCC(C)n1cnc2c(-c3ccc(N)nc3)nc(N3CCOCC3)nc21` (stereo not shown) [Compound 134, 5-[9-(2-Methoxy-1-methyl-ethyl)-2-morpholin-4-yl-9H-purin-6-yl]-pyrirlin-2-ylamino], for which the IC50 in experiment [1] and in experiment [2] was under 1000 nM each time.

In the case of `COC(=O)c1ccc(Cn2cnc3c(-c4cccc(O)c4)nc(N4CCOCC4)nc32)cc1` [Compound 13], the figures for the IC50 in experiment [1] and in experiment [2] were 1000 to 5000 nM and under 1000 nM, respectively.

In the case of `c1nc2cc(-c3nc(N4CCOCC4)nc4c3ncn4CC3CC3)ccc2[nH]1` [Compound 59], the IC50 is 1000 to 5000 nM in experiment [1] and under 1000 nM in experiment [2].

For the compound `Oc1cccc(-c2nc(N3CCOCC3)nc3c2ncn3Cc2cc(F)cc(F)c2)c1` [Compound 37], the IC50 in experiment [1] and in experiment [2] was under 1000 nM throughout.

Turning to `COCC(C)n1cnc2c(-c3cccc4[nH]ccc34)nc(N3CCOCC3)nc21` (stereo not shown) [Compound 67], the IC50 in experiment [1] and in experiment [2] was under 1000 nM each time.

`CCC(C)n1c(-c2ccccc2)nc2c(-c3cccc(O)c3)nc(N3CCOCC3)nc21` (stereo not shown) [Compound 126]: the IC50 in experiment [1] and in experiment [2] was under 1000 nM throughout.

Take `CCC(C)n1c(NCCOC)nc2c(-c3cccc(O)c3)nc(N3CCOCC3)nc21` (stereo not shown) [Compound 128]: the IC50 in experiment [1] and in experiment [2] was under 1000 nM each time.

For `O=C(Cn1cnc2c(-c3cccc(O)c3)nc(N3CCOCC3)nc21)N1CCCC1` [Compound 75, 2-(6-(3-hydroxyphenyl)-2-morpholino-9H-purin-9-yl)-1-(pyrrolidin-1-yl)ethanone], the IC50 in experiment [1] and in experiment [2] was under 1000 nM throughout.

Regarding `c1cc(-c2nc(N3CCOCC3)nc3c2ncn3C2CCOC2)c2cc[nH]c2c1` (stereo not shown) [Compound 110], the IC50 in experiment [1] and in experiment [2] was under 1000 nM in each case.

Take `CCC(CC)n1cnc2c(-c3ccc(N)nc3)nc(N3CCOCC3)nc21` [Compound 138]: the IC50 in experiment [1] and in experiment [2] was under 1000 nM each time.

As to `CS(=O)(=O)Nc1cccc(Cn2cnc3c(-c4cccc(O)c4)nc(N4CCOCC4)nc32)c1` [Compound 55], the values for the IC50 in experiment [1] and in experiment [2] were over 5000 nM and 1000 to 5000 nM, respectively.

For `CS(=O)(=O)Nc1ccc(Cn2cnc3c(-c4cccc(O)c4)nc(N4CCOCC4)nc32)cc1` [Compound 42], the IC50 in experiment [1] was 1000 to 5000 nM; in experiment [2], under 1000 nM.

As for `Oc1cccc(-c2nc(N3CCOCC3)nc3[nH]c(-c4cccs4)nc23)c1` [Compound 117], the results for the IC50 in experiment [1] and in experiment [2] were over 5000 nM and under 1000 nM, respectively.

With `CCC(C)n1c(C)nc2c(-c3cccc(O)c3)nc(N3CCOCC3)nc21` (stereo not shown) [Compound 113], the IC50 in experiment [1] and in experiment [2] was under 1000 nM in each case.

On to `CC(C)C(C)n1cnc2c(-c3ccc(N)nc3)nc(N3CCOCC3)nc21` (stereo not shown) [Compound 136], for which the IC50 in experiment [1] and in experiment [2] was under 1000 nM in each case.

Turning to `COCCn1cnc2c(-c3cncc(F)c3)nc(N3CCOCC3)nc21` [Compound 140], the IC50 is over 5000 nM in experiment [1] and 1000 to 5000 nM in experiment [2].

For the compound `CC(=O)Nc1cccc(-c2nc(N3CCOCC3)nc3c2ncn3Cc2ccccc2)c1` [Compound 4], the IC50 in experiment [1] and in experiment [2] was over 5000 nM throughout.

For the compound `Cc1ccc(C(=O)N2CCC(n3cnc4c(-c5cccc6[nH]ccc56)nc(N5CCOCC5)nc43)CC2)s1` [Compound 104], the IC50 in experiment [1] and in experiment [2] was under 1000 nM each time.

`CC(C)Cn1cnc2c(-c3cccc(O)c3)nc(N3CCOCC3)nc21` [Compound 60]: the half-inhibitory concentration (IC50) in experiment [1] and in experiment [2] was under 1000 nM each time.

Consider `N#CCn1cnc2c(-c3ccc(O)nc3)nc(N3CCOCC3)nc21` [Compound 139], for which the IC50 in experiment [1] and in experiment [2] was over 5000 nM each time.

In the case of `c1ccc(Cn2cnc3c(-c4ccc5[nH]ccc5c4)nc(N4CCOCC4)nc32)cc1` [Compound 58], the IC50 in experiment [1] is 1000 to 5000 nM; in experiment [2] it was over 5000 nM.

Regarding `CCC(C)n1c(N(C)C)nc2c(-c3cccc(O)c3)nc(N3CCOCC3)nc21` (stereo not shown) [Compound 121], the IC50 in experiment [1] and in experiment [2] was under 1000 nM throughout.

With `CCNc1nc2c(-c3cccc(O)c3)nc(N3CCOCC3)nc2n1C(C)CC` (stereo not shown) [Compound 122], the IC50 in experiment [1] and in experiment [2] was under 1000 nM each time.

As for `O=C(Nc1ccc(Cl)cc1)N1CCC(n2cnc3c(-c4cccc5[nH]ccc45)nc(N4CCOCC4)nc32)CC1` [Compound 106], the IC50 in experiment [1] and in experiment [2] was under 1000 nM throughout.

`Nc1ccc(Cn2cnc3c(-c4cccc(O)c4)nc(N4CCOCC4)nc32)cc1` [Compound 20, 3-[9-(4-Amino-benzyl)-2-morpholin-4-yl-9H-purin-6-yl]-phenol]: the IC50 in experiment [1] and in experiment [2] was under 1000 nM throughout.

As to `CC(C)n1cnc2c(-c3ccc(N)nc3)nc(N3CCOCC3)nc21` [Compound 135], the half-inhibitory concentration (IC50) in experiment [1] and in experiment [2] was under 1000 nM each time.

Take `c1cc(-c2nc(N3CCOCC3)nc3c2ncn3CC2CCCCC2)c2cc[nH]c2c1` [Compound 73]: the IC50 was 1000 to 5000 nM in experiment [1] and under 1000 nM in experiment [2].

For the compound `c1ccc(Cn2cnc3c(-c4ccc5nn[nH]c5c4)nc(N4CCOCC4)nc32)cc1` [Compound 39], the IC50 in experiment [1] and in experiment [2] was 1000 to 5000 nM throughout.

As for `O=c1[nH]c2ccc(-c3nc(N4CCOCC4)nc4c3ncn4CC3CC3)cc2[nH]1` [Compound 65], the IC50 in experiment [1] and in experiment [2] was over 5000 nM in each case.

Regarding `CC(C)n1cnc2c(-c3cccc4[nH]ccc34)nc(N3CCOCC3)nc21` [Compound 99], the IC50 in experiment [1] and in experiment [2] was under 1000 nM in each case.

As for `O=[N+]([O-])c1cccc(Cn2cnc3c(-c4cccc(O)c4)nc(N4CCOCC4)nc32)c1` [Compound 31], the IC50 in experiment [1] and in experiment [2] was under 1000 nM in each case.

Take `Nc1ccc(-c2nc(N3CCOCC3)nc3c2ncn3Cc2cccc([N+](=O)[O-])c2)cn1` [Compound 131]: the IC50 in experiment [1] and in experiment [2] was under 1000 nM each time.

Regarding `CCSc1nc2c(-c3cccc(O)c3)nc(N3CCOCC3)nc2n1C(C)CC` (stereo not shown) [Compound 119], the IC50 in experiment [1] and in experiment [2] was under 1000 nM throughout.

Regarding `O=C(CCN1CCCCC1)N1CCC(n2cnc3c(-c4cccc5[nH]ccc45)nc(N4CCOCC4)nc32)CC1` [Compound 95], the IC50 in experiment [1] and in experiment [2] was under 1000 nM in each case.

For `Nc1cccc(Cn2cnc3c(-c4cccc(O)c4)nc(N4CCOCC4)nc32)c1` [Compound 41], the IC50 in experiment [1] and in experiment [2] was under 1000 nM in each case.

As usually defined, the IC50 is the concentration needed to halve the response being measured.
